Measurements from patent US4076816A, “Antibiotic mixture” (priority 1974, dated 1978).
Structures can show the parent of a compound that is named as a salt.

What was measured:
Format in all cases: cell-based
[1] = tested on: Escherichia coli (Leo HA2); test: serial dilution test (technique of Example 1), medium with addition of 10 g of sodium chloride per liter, MIC; details: medium + 10 g sodium chloride per liter, compound alone
Procedure: (§1) A fluid medium containing:
(§2) and containing the appropriate concentrations of the compounds, or of the combinations of them was inoculated with 10^6 cells/ml organisms and incubated over night at 37° C. Minimum inhibitory concentrations (MIC) were taken as the lowest concentrations of either of the compounds alone or of a combination of both at which no visible growth occurred.

[2] = tested on: Klebsiella pneumoniae (Leo HE); test: as above; details: medium + 10 g sodium chloride per liter, compound alone
Procedure: as §1, §2

[3] = tested on: Salmonella typhimurium (Leo HL2); test: as above; details: Salmonella enterica, medium + 10 g sodium chloride per liter, compound alone
Procedure: as §1, §2

[4] = tested on: Escherichia coli (strain Leo HA2); test: in vitro serial dilution test, minimum inhibitory concentration; details: 10^6 cells/ml, over night at 37° C, compound alone
Procedure: The in vitro activity of FL 1060, trimethoprim, and combinations of the two compounds against Escherichia coli (strain Leo HA2) was determined in a serial dilution test. […] Minimum inhibitory concentrations (MIC) were taken as the lowest concentrations of either of the compounds alone or of a combination of both at which no visible growth occurred.

Haemophilus influenzae = test: combined activity in vitro, serial dilutions in chocolate agar plates arranged in form of a chess board, MIC; details: compound alone
Procedure: Combined activity of FL 1060 and trimethoprim against Haemophilus influenzae in vitro. Serial dilutions of FL 1060 and trimethoprim were performed in "chocolate agar"^x) plates arranged in form of a chess board. Inoculum: 3.5 μl drops containing about 10^7 cells/ml. Incubation: overnight at 36° C. ^x) Caseinhydrolysate (pancreatic) 1.3%, dextrose 0.085%, sodium chloride 0.21%, 1-cystine 0.004%, agar (Oxoid No. 1) 0.6% in distilled water, pH 7.1 after autoclaving, horse blood (defibriated) 5%, yeast extract (Difco) 1.3% (membrane filtered) added at 80° C.

[5] = strain IX14, overnight at 36° C
[6] = strain IX15, overnight at 36° C

| MIC [1] [µg/mL] | MIC [2] [µg/mL] | MIC [3] [µg/mL] | MIC [4] [µg/mL] | MIC (Haemophilus influenzae; strain IX5, overnight at 36° C) [µg/mL] | MIC (Haemophilus influenzae; strain IX6, overnight at 36° C) [µg/mL] | MIC (Haemophilus influenzae; [5]) [µg/mL] | MIC (Haemophilus influenzae; [6]) [µg/mL] | Compound |
| --- | --- | --- | --- | --- | --- | --- | --- | --- |
| 50 | 0.5 | > 100 | 0.016 | > 100 | > 100 | > 100 | > 100 | CC1(C)S[C@@H]2[C@H](N=CN3CCCCCC3)C(=O)N2[C@H]1C(=O)O [FL 1060, 6-[(hexahydro-1H-azepin-1-yl)-methyleneamino]-penicillanic acid, hydrochloride, dihydrate] |
| > 50 | 1.6 | > 100 | 100 | 1 | 3.2 | > 100 | > 100 | COc1cc(Cc2cnc(N)nc2N)cc(OC)c1OC [Trimethoprim, 2,4-diamino-5(3,4,5-trimethoxybenzyl)-pyrimidine] |
